According to article PMC8686256, “DZNep promotes mouse bone defect healing via enhancing both osteogenesis and osteoclastogenesis” (Stem Cell Research & Therapy, 2021):

Legend:
Assay type in all cases: cell-based, mouse
[1] = test system: BMMs; experiment: Bone resorption assay on hydroxyapatite-coated Osteo Assay plates; details: 25 nM, compared with the control group
Method: To explore the effect of DZNep on the function of osteoclast, BMMs on complete α-MEM were seeded at the density of 1 × 10^4 cells/well, in triplicate, on the Osteo Assay Surface plates (Corning, NY, USA). After thirty-six hours, the culture medium was replaced by complete α-MEM, with RANKL (50 ng/mL), and various doses of DZNep (control, 6.25, 12.5, and 25 nM). For EZH2 gene knockdown studies, the cells were transfected with virus constructed of different EZH2 short hairpin RNA (shRNA) and negative control shRNA by mixed with polybrene (final concentration of 10ug/ml) for 48 h. The transfection mixture was then replaced by complete α-MEM added with puromycin for 24 h, and the survived BMMs were seeded into a 96-well plate, in triplicate, at a density of 1 × 10^4 cells/well. The medium needs to be constantly replaced until the osteoclast had matured for 1 day. For Foxc1 inhibition experiment, the cells were separately transfected with negative control siRNA, negative control siRNA with DZNep, and Foxc1 small interfering RNA (siRNA) with DZNep and by mixed with transfection reagent and osteoclast culture medium. The transfection mixture was then replaced every 2 days until the osteoclast had been observed for 2 days. […] The total area of resorption was photographed and then calculated by ImageJ software (NIH, Bethesda, MD, USA).

[2] = test system: BMMs and calvarial OB co-culture; experiment: Osteoblasts and osteoclasts co-cultivation, ALP staining; details: 7 days
Method: For the osteoblasts and osteoclasts co-culture system, calvarial OB isolated from day 1–3 pups were cultured for 24 h. Then the calvarial OB with complete α-MEM (α-MEM supplemented with 10% FBS, 1% penicillin/streptomycin) were seeded into 24-well plates at a density of 2 × 10^4 cells/well. After 3 days of cultivation, the medium was replaced by the complete α-MEM containing […] ascorbic acid and 5 mM β-glycerophosphate. On the same day, bone marrow monocytes were isolated from bone marrow and cultured in 10-cm dish. Another 3 days later, BMMs were seeded at a density of 4 × 10^4 cells/well into the 24-well plate containing the calvarial OB, and the α-MEM supplemented with 15% FBS, 1% penicillin/streptomycin, 1, 25-dihydroxy vitamin D3 (10 nM; CSN), and PGE2 (1 μM; CSN). After changed every 3 days for 2 times of the culture medium, the cells were then fixed and stained to observe the percent of the positive ALP staining area using a kit according to the manufacturer’s instructions (Beyotime, Shanghai, China). The percent of area was then quantified using ImageJ.

[3] = test system: primary BMSC; experiment: Osteoblast differentiation and mineralization, ALP and Alizarin red staining
Method: Primary BMSC were obtained from the whole bone marrow of male 4-week-old C57BL/6 mice. In brief, cells were extracted from the tibiae and femurs bone marrow and suspended in α-MEM supple with 10% FBS, and 1% penicillin/streptomycin. Then, the cell cultures were kept in a humid environment at 37 °C with 5% CO2 until they reached 90% confluence. For further identifying the effect of DZNep on osteogenesis, bone marrow-derived mouse mesenchymal stem cells were firstly seeded into the 48-well plates for one day at a density of 5 × 10^4 cells/well. Then the medium was changed by low-glucose DMEM with 15% FBS, 5 mM β-glycerophosphate, 50 µg/mL ascorbic acid, 10-7 mM dexamethasone, and various concentrations of DZNep (0, 12.5, 25, 50, and 100 nM). The medium was changed twice a week. For EZH2 gene knockdown studies, the cells were transfected with virus constructed of different EZH2 short hairpin RNA (shRNA) and negative control shRNA by mixed with polybrene (final concentration of 10ug/ml) for 48 h. The transfection mixture was then replaced by complete α-MEM added with puromycin for 24 h, and BMSCs were then seeded into a 48-well plate at the density of 5 × 10^4 cells/well with complete α-MEM for 24 h. The culture medium was then replaced by low-glucose DMEM with 15% FBS, 5 mM β-glycerophosphate, 50 µg/mL ascorbic acid, 10-7 mM dexamethasone. The medium was changed twice a week. […]

`Nc1nccc2c1ncn2C1C=C(CO)C(O)C1O` (stereo not shown) [DZNep, 3-Deazaneplanocin] was tested. Which bone resorption area [1] did it give?
Its bone resorption area is “more than 30%”.

And the “osteogenesis in co-culture system (ALP)” value [2]?
The value was “still preserves the effect of promoting osteogenesis”.

And the “osteoblast differentiation (ALP staining)” value ([3]; 7 days, especially 50 nM)?
The value was “promoted”.

And the “osteoblast mineralization (Alizarin red staining)” value ([3]; 28 days)?
Its value is “enhanced in a dose-dependent manner”.
